# Measurements taken from ChEMBL document CHEMBL3044672, “N9- and N7-(Chloromethyl Phenymethyl)Chloropurine Derivatives from , '-Dichloroxylenes: Synthesis and Anticancer Activity” (2005).
# Assays:
# Format in all cases: functional
# [1] = Cytotoxicity against Homo sapiens (human) NCI-ADR-RES cells after 48 hr by sulforhodamine B assay
# U-251 = assay: Cytotoxicity against Homo sapiens (human) U251 cells after 48 hr by sulforhodamine B assay; conditions: U-251, 48 h
# K562 = assay: Cytotoxicity against Homo sapiens (human) K562 cells after 48 hr by sulforhodamine B assay; conditions: K562, 48 h
# OVCAR-3 = assay: Cytotoxicity against Homo sapiens (human) OVCAR3 cells after 48 hr by sulforhodamine B assay; conditions: OVCAR-3, 48 h
# HCT-116 = assay: Cytotoxicity against Homo sapiens (human) HCT116 cells after 48 hr by sulforhodamine B assay; conditions: HCT-116, 48 h
# NCI-H23 = assay: Cytotoxicity against Homo sapiens (human) NCI-H23 cells after 48 hr by sulforhodamine B assay; conditions: NCI-H23, 48 h
# SK-MEL-5 = assay: Cytotoxicity against Homo sapiens (human) SK-MEL-5 cells after 48 hr by sulforhodamine B assay; conditions: SK-MEL-5, 48 h
# KM12 = assay: Cytotoxicity against Homo sapiens (human) KM12 cells after 48 hr by sulforhodamine B assay; conditions: KM12, 48 h
# CAKI-1 = assay: Cytotoxicity against Homo sapiens (human) Caki1 cells after 48 hr by sulforhodamine B assay; conditions: CAKI-1, 48 h
# MOLT-4 = assay: Cytotoxicity against Homo sapiens (human) MOLT4 cells after 48 hr by sulforhodamine B assay; conditions: MOLT-4, 48 h
# UACC-257 = assay: Cytotoxicity against Homo sapiens (human) UACC257 cells after 48 hr by sulforhodamine B assay; conditions: UACC-257, 48 h
# NCI-H226 = assay: Cytotoxicity against Homo sapiens (human) NCI-H226 cells after 48 hr by sulforhodamine B assay; conditions: NCI-H226, 48 h
# SN12C = assay: Cytotoxicity against Homo sapiens (human) SN12C cells after 48 hr by sulforhodamine B assay
# MDA-MB-435 = assay: Cytotoxicity against Homo sapiens (human) MDA-MB-435 cells after 48 hr by sulforhodamine B assay; conditions: MDA-MB-435, 48 h
# NCI-H322M = assay: Cytotoxicity against Homo sapiens (human) NCI-H322M cells after 48 hr by sulforhodamine B assay
# SF-268 = assay: Cytotoxicity against Homo sapiens (human) SF268 cells assessed as cell growth at 10^-4 M after 48 hr by […] assay; conditions: SF-268, 48 h, read-out: Activity
# HOP-62 = assay: Cytotoxicity against Homo sapiens (human) HOP62 cells after 48 hr by sulforhodamine B assay; conditions: HOP-62, 48 h
# MDA-MB-231 = assay: Cytotoxicity against Homo sapiens (human) MDA-MB-231 cells after 48 hr by sulforhodamine B assay; conditions: MDA-MB-231, 48 h
# OVCAR-4 = assay: Cytotoxicity against Homo sapiens (human) OVCAR4 cells after 48 hr by sulforhodamine B assay; conditions: OVCAR-4, 48 h
# COLO 205 = assay: Cytotoxicity against Homo sapiens (human) COLO205 cells after 48 hr by sulforhodamine B assay; conditions: COLO 205, 48 h
# UACC-62 = assay: Cytotoxicity against Homo sapiens (human) UACC62 cells after 48 hr by sulforhodamine B assay; conditions: UACC-62, 48 h
# HCC 2998 = assay: Cytotoxicity against Homo sapiens (human) HCC2998 cells after 48 hr by sulforhodamine B assay; conditions: HCC 2998, 48 h
# IGROV-1 = assay: Cytotoxicity against Homo sapiens (human) IGROV1 cells after 48 hr by sulforhodamine B assay; conditions: IGROV-1, 48 h
# RXF 393 = assay: Cytotoxicity against Homo sapiens (human) RXF393 cells after 48 hr by sulforhodamine B assay; conditions: RXF 393, 48 h
# EKVX = assay: Cytotoxicity against Homo sapiens (human) EKVX cells after 48 hr by sulforhodamine B assay
# PC-3 = assay: Cytotoxicity against Homo sapiens (human) PC3 cells after 48 hr by sulforhodamine B assay; conditions: PC-3, 48 h
# A549 = assay: Cytotoxicity against Homo sapiens (human) A549 cells after 48 hr by sulforhodamine B assay; conditions: A549, 48 h
# SK-MEL-2 = assay: Cytotoxicity against Homo sapiens (human) SK-MEL-2 cells after 48 hr by sulforhodamine B assay; conditions: SK-MEL-2, 48 h
# HT-29 = assay: Cytotoxicity against Homo sapiens (human) HT-29 cells after 48 hr by sulforhodamine B assay; conditions: HT-29, 48 h
# SF-539 = assay: Cytotoxicity against Homo sapiens (human) SF539 cells after 48 hr by sulforhodamine B assay; conditions: SF-539, 48 h
# NCI-H522 = assay: Cytotoxicity against Homo sapiens (human) NCI-H522 cells after 48 hr by sulforhodamine B assay; conditions: NCI-H522, 48 h
# [2] = read-out: LC50 (the source's name)
structure (smiles),measurement,setting,value
ClCc1ccccc1Cn1cnc2ncnc(Cl)c21,GI50,[1],2.08 µM
same,LC50 (concentration killing 50% of cells),[1],6.54 µM
same,TGI,[1],4.46 µM
same,GI50,U-251,1.9 µM
same,LC50 (concentration killing 50% of cells),U-251,10.2 µM
same,TGI,U-251,4.36 µM
same,GI50,K562,2.23 µM
same,TGI,K562,5.88 µM
same,CC50,K562; [2],83.2 µM
same,GI50,OVCAR-3,2.04 µM
same,LC50,OVCAR-3,8.31 µM
same,TGI,OVCAR-3,4.16 µM
same,GI50,HCT-116,1.51 µM
same,TGI,HCT-116,4.07 µM
same,CC50,HCT-116; [2],40.7 µM
same,GI50,NCI-H23,5.01 µM
same,TGI,NCI-H23,17.4 µM
same,CC50,NCI-H23; [2],49 µM
same,GI50,SK-MEL-5,1.38 µM
same,LC50,SK-MEL-5,15.8 µM
same,TGI,SK-MEL-5,4.07 µM
same,GI50,KM12,3.63 µM
same,TGI,KM12,11.2 µM
same,CC50,KM12; [2],38 µM
same,GI50,CAKI-1,2.34 µM
same,TGI,CAKI-1,4.16 µM
same,CC50,CAKI-1; [2],7.41 µM
same,GI50,MOLT-4,1.65 µM
same,TGI,MOLT-4,4.26 µM
same,CC50,MOLT-4; [2],16.6 µM
same,GI50,UACC-257,5.88 µM
same,LC50 (concentration killing 50% of cells),UACC-257,61.6 µM
same,TGI,UACC-257,21.9 µM
same,GI50,NCI-H226,3.38 µM
same,TGI,NCI-H226,7.94 µM
same,CC50,NCI-H226; [2],> 100 µM
same,GI50,SN12C,2.95 µM
same,LC50 (50% lethal concentration),SN12C,42.6 µM
same,TGI,SN12C,8.51 µM
same,GI50,MDA-MB-435,1.94 µM
same,LC50,MDA-MB-435,7.58 µM
same,TGI,MDA-MB-435,3.8 µM
same,GI50,NCI-H322M,4.67 µM
same,TGI,NCI-H322M,15.8 µM
same,CC50,NCI-H322M; [2],40.7 µM
same,growth at 100 µM,SF-268,0%
same,GI50,HOP-62,11.2 µM
same,TGI,HOP-62,28.8 µM
same,CC50,HOP-62; [2],75.9 µM
same,GI50,MDA-MB-231,2.75 µM
same,LC50,MDA-MB-231,25.1 µM
same,TGI,MDA-MB-231,6.91 µM
same,GI50,OVCAR-4,4.89 µM
same,LC50 (concentration killing 50% of cells),OVCAR-4,77.6 µM
same,TGI,OVCAR-4,20.4 µM
same,GI50,COLO 205,4.36 µM
same,TGI,COLO 205,> 100 µM
same,CC50,COLO 205; [2],> 100 µM
same,GI50,UACC-62,1.86 µM
same,LC50 (concentration causing 50% net cell kill),UACC-62,19.1 µM
same,TGI,UACC-62,5.12 µM
same,GI50,HCC 2998,2.23 µM
same,TGI,HCC 2998,4.26 µM
same,CC50,HCC 2998; [2],7.94 µM
same,GI50,IGROV-1,4.26 µM
same,LC50,IGROV-1,> 100 µM
same,TGI,IGROV-1,22.9 µM
same,GI50,RXF 393,1.65 µM
same,TGI,RXF 393,6.54 µM
same,CC50,RXF 393; [2],> 100 µM
same,GI50,EKVX,5.37 µM
same,TGI,EKVX,17.8 µM
same,CC50,EKVX; [2],45.7 µM
same,GI50,PC-3,4.46 µM
same,LC50 (concentration causing 50% cell kill),PC-3,74.1 µM
same,TGI,PC-3,19.1 µM
same,GI50,A549,4.46 µM
same,TGI,A549,24 µM
same,CC50,A549; [2],> 100 µM
same,GI50,SK-MEL-2,4.16 µM
same,LC50 (concentration killing 50% of cells),SK-MEL-2,> 100 µM
same,TGI,SK-MEL-2,19.5 µM
same,GI50,HT-29,3.89 µM
same,TGI,HT-29,> 100 µM
same,CC50,HT-29; [2],> 100 µM
same,GI50,SF-539,2.34 µM
same,LC50 (concentration killing 50% of cells),SF-539,12 µM
same,TGI,SF-539,5.01 µM
same,GI50,NCI-H522,2.81 µM
same,TGI,NCI-H522,75.9 µM
same,CC50,NCI-H522; [2],> 100 µM
